Assays:
trypsin = trypsin inhibition; type: biochemical; details: at concentrations up to 100 µg/mL
chymotrypsin = chymotrypsin inhibition; type: biochemical; details: at concentrations up to 100 µg/mL

Substance: Anabaenopeptin 908 [Compound 3]
- trypsin inhibition (qualitative) (trypsin): did not observe trypsin/chymotrypsin inhibition
- chymotrypsin inhibition (qualitative) (chymotrypsin): did not observe trypsin/chymotrypsin inhibition

Substance: Anabaenopeptin 915 [Compound 4]
- trypsin inhibition (qualitative) (trypsin): did not observe trypsin/chymotrypsin inhibition
- chymotrypsin inhibition (qualitative) (chymotrypsin): did not observe trypsin/chymotrypsin inhibition

— article PMC2673918 (Journal of natural products, 2009)
